Source: US20200352889A1, “CYSTATHIONINE COMPOSITIONS AND METHODS OF TREATMENT FOR HEALTH CONDITIONS” (THE REGENTS OF THE UNIVERSITY OF COLORADO, A BODY CORPORATE, priority 2011, published 2020)
“Also recorded” adds a separate entry of the source.

Experiments:
[1] = system: C57BL/6 WT mice treated with tunicamycin; experiment: Tunicamycin-induced hepatic and renal damage in WT mice in the presence and absence of PPG; format: in vivo, mouse
Source text: In order to investigate the effects of elevated cystathionine upon the response to ER stress, wild type mice (n=6) were exposed to a single sub-lethal intraperitoneal injection of tunicamycin in the presence and absence of the CGL inactivating compound PPG. WT mice were randomly assigned to one of four treatment groups (n=6 for each group): 1) control, IP injected with PBS; 2) I.P. injection with PPG; 3) single I.P […] tunicamycin and 4) tunicamycin+PPG. In groups 2 and 4, PPG treatment was maintained by daily injection until sacrifice at three days post vehicle/tunicamycin injection. After the completion of this treatment regime, all mice were anaesthetized (isoflourane/oxygen) and sacrificed by decapitation, and blood samples were collected for plasma analysis. Livers and kidneys were removed, weighed and then samples were either immersion-fixed overnight in 4% paraformaldehyde in PBS (pH 7.3) for subsequent histological analysis or were snap frozen in liquid nitrogen and examined for morphological, histological and biochemical analyses.
Propensity for hepatic steatosis was examined in HO and wild type control mice using a methionine-choline deficient amino acid defined and iron supplemented diet (#518810 Dyets Inc., Bethlehem, Pa.)) and an isocaloric amino acid defined Lombardi choline sufficient diet with methionine control diet (518754, Dyets Inc., Bethlehem, Pa.) for 19 days as described previously (7). Experimental hypercystathionemia was induced by IP injection of the CGL inactivator PPG (50 mg·day-1·kg-1) as described previously (8). ER stress was induced in mice by a single IP injection with tunicamycin at 0.5 mg/kg body weight (volume <=1.0 ml). Control mice were sham treated by injection with an equal volume of PBS (9,10).
Tissues were immersion-fixed overnight in 4% paraformaldehyde in PBS (pH 7.3). Paraffin embedded sections (5 μm) were stained for examination with hematoxylin and eosin (H and E). Cells undergoing apoptosis were identified by labeling their DNA 3′-OH nick ends using a variant of terminal deoxynucleotidyl transferase-mediated dUTP nick end-labeling (TUNEL) staining. Staining was performed according to the manufacturer's instruction with ApopTag® Peroxidase in Situ Apoptosis Detection Kit (Millipore, Billerica, Mass.). Tissue sections were deparaffinized with xylene and washed in succession with different concentrations of ethanol (absolute, 95% and 70%). Tissue sections were then digested with proteinase K (20 μg/ml) for 15 min. Endogenous peroxidase activity was quenched with 3% H2O2 in PBS for 5 min. The slides were immersed in terminal deoxynucleotidyl transferase (TdT) buffer containing digoxigenin-labeled nucleotides at 37° C. for 1 h. After washing, anti-digoxigenin-peroxidase was added to cover the slides and incubated in a humid chamber at room temperature for 30 min. After washing with PBS, the slides were stained with diaminobenzidine and then counterstained with 1% methyl green. Light microscopy was performed to quantify the apoptotic cells, by counting cells in ten randomly selected fields (×100 magnification) of each slide with the following formula: number of apoptotic cells/total number of cells counted×100.
A party unaware of the animal's genotype or treatment group performed both histological analysis, of stained slides and TUNEL staining. Liver injury was assessed by determining plasma levels of alanine aminotransferase (ALT) activity using an enzyme-coupled assay with lactic dehydrogenase (LDH) as described previously (12) Liver lipid was extracted using the procedure of Bligh and Dyer (13) and after evaporation of the organic solvent, the triacylglycerol content of each sample was measured in duplicate using an enzymatic method (Sigma-Aldrich).

293AD cells = experiment: Tunicamycin-induced cell death, LDH release and phase-contrast, 293AD cells; format: cell-based, human
Method: (§1) Cells were seeded in triplicate at ˜75% confluence and pre-treated with either PPG) (5 mM), Cystathionine (1 mM) or with just complete media (DMEM, 10% FBS) as a control. After 24 hr pre-treatment, cells looked normal, with minimal floating cells. Fresh media with 1% FBS was then added to each well, the cells were further treated with Tm (either 5 or 10 ug)/ml. After 18 hr. treatment with Tunicamycin, cells were photographed under phase-contrast with a Zeiss Axiovert 25 microscope for evidence of dead floating cells. Cells from the group treated solely with tunicamycin became strikingly hyper-refringent, detached from the substratum and floated in the media. […] To further evaluate a role for cystathionine in resisting the induction of cell death by tunicamycin, cell lysis was quantified by assaying lactate dehydrogenase (LDH) release. The enzyme activity was determined spectrophotometrically and the amount of enzyme leak was expressed as a percentage of the LDH activity observed in untreated control cells.
HepG2, 293AD and a23 cells were seeded in triplicate at ˜75% confluence and were pre-treated with either propargylglycine (PPG) (5 mM) or cystathionine (5 mM) in complete media (DMEM, 10% FBS). After 24 hours, fresh media with 1% FBS was added to each well. Cells were then further treated with tunicamycin (either 5 or 10 ug/ml) for 18 hr treatment. Cells were subsequently photographed under phase-contrast with a Zeiss Axiovert 25 microscope for evidence of dead floating cells. To quantify cell death the media supernatant was collected for LDH release assay using a kit from Roche Applied Science (Cat.No.11 644 793 001) according to the manufacturer's standard protocol where cytotoxicity (%)=((experimental value-low control/(high control-low control))×100.
as §1, with “24 hr.” for “24 hr”

HepG2 cells = experiment: Tunicamycin-induced cell death, LDH release, HepG2 cells; format: cell-based, human; conditions: data not shown
Method: as §1, with “control cells. […]” for “control cells.”
Cells were seeded in triplicate at ˜75% confluence and pre-treated with either PPG) (5 mM), Cystathionine (1 mM) or with just complete media (DMEM, 10% FBS) as a control. […] To further evaluate a role for cystathionine in resisting the induction of cell death by tunicamycin, cell lysis was quantified by assaying lactate dehydrogenase (LDH) release. […]

[2] = tunicamycin 0.5 mg/kg single IP + daily PPG, three days

C#CCC(N)C(=O)O (racemic) [PPG, D,L-2-amino-4-pentynoic acid]
apoptosis (Tunel staining) ([1]; PPG alone control group): No apoptosis was observed
morphological alteration (histology) ([1]; PPG alone control group): no significant morphological alteration
size and appearance of livers and kidneys ([1]; PPG alone control group): normal in size and appearance
liver weight vs control groups [1, 2]: did not differ significantly from the control groups
plasma ALT levels vs control groups [1, 2]: did not differ significantly from the control groups
triglyceride levels vs control groups [1, 2]: did not differ significantly from the control groups
gross appearance of livers and kidneys ([1]; tunicamycin + PPG, three days): appeared ostensibly normal; also recorded: this effect was not apparent
tunicamycin-induced morphological changes in liver and kidney (H and E histology) ([1]; tunicamycin + PPG, three days): effectively ablated; also recorded: significantly attenuated
apoptotic cells in kidney (Tunel staining) ([1]; tunicamycin treated mice pretreated with PPG): No apoptotic cells were observed
prevention of tunicamycin-induced cell death (LDH release) (293AD cells; 293AD cells, tunicamycin 5 μg/ml 18 hr, 24 hr pre-treatment PPG 5 mM): largely prevented
reduction in cell death (LDH release) (293AD cells; 293AD cells, tunicamycin 10 μg/ml 18 hr, 24 hr pre-treatment PPG 5 mM or cystathionine 1 mM, p<0.0001): 11 fold
floating dead cells (phase-contrast) (293AD cells; tunicamycin 18 hr after PPG or cystathionine pre-treatment): No floating dead cells were observed; also recorded: not evident
protection against tunicamycin-induced cell death compared with 293AD cells (HepG2 cells): Essentially identical results
